SMILES strings stand for the structures.

Consider 27 compounds from patent US8110687B2, “Bicyclic compounds with kinase inhibitory activity” (Millennium Pharmaceuticals, Inc., priority 2005, dated 2012).

The subject of the experiment is phospho-ERK formation (Raf kinase activity) in A375 cells. As to the kind of experiment: Phospho-ERK ELISA assay. It counts as cell-based. To be noted: Homo sapiens, A-375, 3 h, 3 hours with inhibitor, read-out: IC50, inhibition of the formation of phospho-ERK. The method, then:
Inhibition of Raf kinase activity in whole cell systems can be assessed by determining the decrease in phosphorylation of Raf kinase substrates. Any known Raf kinase substrate can be used to measure inhibition of Raf kinase activity in a whole cell system.
Medium was removed, and cells were incubated with Raf kinase inhibitors for 3 hours at 37° C. Medium was removed, and cells were fixed with 4% paraformaldehyde for 15 minutes at room temperature.
Methanol was added for 15 min. Cells were removed and blocked with 10% sheep serum and 1% BSA in PBS overnight at 4° C. Cells were incubated with anti-p44/42MAPK antibody (1:100, Cell Signaling Technologies, #9101L) (20 μL/well) for one hour at room temperature. After washing with PBS three times, cells were stained with anti-rabbit horseradish peroxidase-linked antibody from donkey (1:100, Amersham Bioscience #NA934V) for 1 hour at room temperature. Cells were washed three times with 0.5% Tween-20 in PBS and twice with PBS. 3,3′, 5,5′-Tetramethylbenzidine (TMB) liquid substrate system (Sigma, #T8665) (50 μL/well) was added, and cells were incubated for 30-45 minutes at room temperature. Optical density was read at 650 nm. Cells were then washed 3-5 times with PBS to remove color solution. Results were normalized for the protein content in each well using a BCA protein assay kit (Pierce).
Regarding `CN1Cc2ccc(Oc3ccnc(C4=NCCN4)c3)cc2CC1C(=O)Nc1ccc(Cl)c(C(F)(F)F)c1` (stereo not drawn) [Compound I-11, N-[4-Chloro-3-(trifluoromethyl)phenyl]-6-{[2-(4,5-dihydro-1H-imidazol-2-yl)pyridin-4-yl]oxy}-2-methyl-1,2,3,4-tetrahydroisoquinoline-3-carboxamide], the IC50 (as a rule, the point on the concentration scale where inhibition reaches its midpoint) is at most 25 µM. With `O=C(Nc1ccc(Cl)c(C(F)(F)F)c1)C1CCc2cccc(Oc3ccnc(C4=NCCN4)c3)c2C1` (stereo not drawn) [Compound I-21, N-[4-chloro-3-(trifluoromethyl)phenyl]-8-{[2-(4,5-dihydro-1H-imidazol-2-yl)pyridin-4-yl]oxy}-1,2,3,4-tetrahydronaphthalene-2-carboxamide] the figure was at most 25 µM; with `CNC(=O)c1cc(Oc2ccc3c(c2)CC(C(=O)Nc2cccc(C(C)(C)C)c2)CC3)ccn1` (stereo not drawn) [Compound I-23, 4-[(7-{[(3-tert-butylphenyl)amino]carbonyl}-5,6,7,8-tetrahydronaphthalen-2-yl)oxy]-N-methylpyridine-2-carboxamide], at most 25 µM; with `CNC(=O)c1cc(Oc2ccc3c(c2)CC(C(=O)Nc2ccc(CN)c(C(F)(F)F)c2)CC3)ccn1` (stereo not drawn) [Compound I-28, 4-{[7-({[4-(aminomethyl)-3-(trifluoromethyl)phenyl]amino}carbonyl)-5,6,7,8-tetrahydronaphthalen-2-yl]oxy}-N-methylpyridine-2-carboxamide], at most 25 µM. With `CNC(=O)c1cc(Oc2ccc3c(c2)CC(C(=O)Nc2ccc(CCN)cc2)CC3)ccn1` (stereo not drawn) [Compound I-29, 4-{[7-({[4-(2-aminoethyl)phenyl]amino}carbonyl)-5,6,7,8-tetrahydronaphthalen-2-yl]oxy}-N-methylpyridine-2-carboxamide] the figure was at most 25 µM; with `O=C(Nc1ccc(Cl)c(C(F)(F)F)c1)c1cc2cc(Oc3ccnc(C4=NCCN4)c3)ccc2cn1` [Compound I-35, N-[4-chloro-3-(trifluoromethyl)phenyl]-6-{[2-(4,5-dihydro-1H-imidazol-2-yl)pyridin-4-yl]oxy}isoquinoline-3-carboxamide], at most 25 µM.

As for `CNC(=O)c1cc(Oc2ccc3c(c2)CC(C(=O)Nc2ccc(CN)cc2)CC3)ccn1` (stereo not drawn) [Compound I-42, 4-{[7-({[4-(aminomethyl)phenyl]amino}carbonyl)-5,6,7,8-tetrahydronaphthalen-2-yl]oxy}-N-methylpyridine-2-carboxamide], the IC50 is at most 25 µM. As for `O=C(Nc1ccc(Cl)c(C(F)(F)F)c1)c1ccc2ccc(Oc3ccnc(C4=NCCN4)c3)cc2n1` [Compound I-45, N-[4-chloro-3-(trifluoromethyl)phenyl]-7-{[2-(4,5-dihydro-1H-imidazol-2-yl)pyridin-4-yl]oxy}quinoline-2-carboxamide], the IC50 was at most 25 µM. With `O=C(Nc1ccc(Cl)c(C(F)(F)F)c1)c1ccc2ccc(Oc3ccnc(C4=NCCN4)c3)cc2c1` [Compound I-46, N-[4-chloro-3-(trifluoromethyl)phenyl]-7-{[2-(4,5-dihydro-1H-imidazol-2-yl)pyridin-4-yl]oxy}-2-naphthamide] the figure was at most 25 µM; with `O=C(Nc1cc(OC2CCNCC2)cc(C(F)(F)F)c1)c1ccc2ccc(Oc3ccnc(C4=NCCN4)c3)cc2c1` [Compound I-48, 7-{[2-(4,5-dihydro-1H-imidazol-2-yl)pyridin-4-yl]oxy}-N-[3-(piperidin-4-yloxy)-5-(trifluoromethyl)phenyl]-2-naphthamide], at most 25 µM. With `CC(C)(C)c1cccc(NC(=O)c2ccc3ccc(Oc4ccnc(C5=NCCN5)c4)cc3n2)c1` [Compound I-50, N-(3-tert-butylphenyl)-7-{[2-(4,5-dihydro-1H-imidazol-2-yl)pyridin-4-yl]oxy}quinoline-2-carboxamide], the IC50 was at most 25 µM. As for `CNC(=O)c1cc(Oc2ccc3c(c2)CC(C(=O)Nc2cccc(CN)c2)CC3)ccn1` (stereo not drawn) [Compound I-51, 4-{[7-({[3-(aminomethyl)phenyl]amino}carbonyl)-5,6,7,8-tetrahydronaphthalen-2-yl]oxy}-N-methylpyridine-2-carboxamide], the IC50 is at most 25 µM. The same measure for `O=C(Nc1ccc(Cl)c(C(F)(F)F)c1)C1Cc2cc(Oc3ccnc(C4=NCCN4)c3)ccc2CN1` (stereo not drawn) [Compound I-54, N-[4-chloro-3-(trifluoromethyl)phenyl]-6-{[2-(4,5-dihydro-1H-imidazol-2-yl)pyridin-4-yl]oxy}-1,2,3,4-tetrahydroisoquinoline-3-carboxamide]: at most 25 µM; for `CC(C)(C)c1cccc(NC(=O)c2ccc3ccc(Oc4ccnc(C(=N)N5CCCC5)c4)cc3c2)c1` [Compound I-93, N-(3-tert-butylphenyl)-7-({2-[imino(pyrrolidin-1-yl)methyl]pyridin-4-yl}oxy)-2-naphthamide]: at most 25 µM.

As to `CC(C)(C)c1cccc(NC(=O)c2ccc3ccc(Oc4ccnc(C(=N)N5CCOCC5)c4)cc3c2)c1` [Compound I-99, N-(3-tert-butylphenyl)-7-({2-[imino(morpholin-4-yl)methyl]pyridin-4-yl}oxy)-2-naphthamide], the IC50 is at most 25 µM. As for `CNC(=O)c1cc(Oc2ccc3c(c2)CC(C(=O)Nc2ccc(CN4CCCC4)c(C(F)(F)F)c2)CC3)ccn1` (stereo not drawn) [Compound I-129, N-methyl-4-{[7-({[4-(pyrrolidin-1-ylmethyl)-3-(trifluoromethyl)phenyl]amino}carbonyl)-5,6,7,8-tetrahydronaphthalen-2-yl]oxy}pyridine-2-carboxamide], the IC50 is at most 25 µM. The same measure for `CN(C)CC(=O)Nc1cc(Oc2ccc3ccc(C(=O)Nc4ccc(Cl)c(C(F)(F)F)c4)cc3c2)ccn1` [Compound I-138, N-[4-chloro-3-(trifluoromethyl)phenyl]-7-[(2-{[(dimethylamino)acetyl]amino}pyridin-4-yl)oxy]-2-naphthamide]: at most 25 µM; for `Nc1cc(Oc2ccc3ccc(C(=O)Nc4cc(OCCN5CCCC5)cc(C(F)(F)F)c4)cc3c2)ccn1` [Compound I-142, 7-[(2-aminopyridin-4-yl)oxy]-N-[3-(2-pyrrolidin-1-ylethoxy)-5-(trifluoromethyl)phenyl]-2-naphthamide]: at most 25 µM; for `CC(C)(C)c1cccc(NC(=O)C2CCc3ccc(Oc4ccnc(-c5nc(C(=O)O)c[nH]5)c4)cc3C2)c1` (stereo not drawn) [Compound I-155, 2-{4-[(7-{[(3-tert-Butylphenyl)amino]carbonyl}-5,6,7,8-tetrahydronaphthalen-2-yl)oxy]pyridin-2-yl}-1H-imidazole-4-carboxylic acid]: at most 25 µM. With `N#Cc1ccc(NC(=O)c2ccc3ccc(Oc4ccnc(N)c4)cc3c2)cc1C(F)(F)F` [Compound I-158, 7-[(2-aminopyridin-4-yl)oxy]-N-[4-cyano-3-(trifluoromethyl)phenyl]-2-naphthamide] the figure was at most 25 µM; with `CNC(=O)c1cc(Oc2ccc3ncc(C(=O)Nc4ccc(CN)c(C(F)(F)F)c4)cc3c2)ccn1` [Compound I-161, N-[4-(aminomethyl)-3-(trifluoromethyl)phenyl]-6-({2-[(methylamino)carbonyl]pyridin-4-yl}oxy)quinoline-3-carboxamide], at most 25 µM. The same measure for `Nc1cc(Oc2ccc3ccc(C(=O)Nc4ccc(Cl)c(C(F)(F)F)c4)cc3c2)ccn1` [Compound I-162, 7-[(2-aminopyridin-4-yl)oxy]-N-[4-chloro-3-(trifluoromethyl)phenyl]-2-naphthamide]: at most 25 µM.

In the case of `COC(=O)NCc1cc(Oc2ccc3c(c2)CC(C(=O)Nc2cc(CN)cc(C(F)(F)F)c2)CC3)ccn1` (stereo not drawn) [Compound I-192, methyl [(4-{[7-({[3-(aminomethyl)-5-(trifluoromethyl)phenyl]amino}carbonyl)-5,6,7,8-tetrahydronaphthalen-2-yl]oxy}pyridin-2-yl)methyl]carbamate], the IC50 is at most 25 µM.

In the case of `CC(C)(C)c1cccc(NC(=O)C2CCc3ccc(Oc4ccnc(C(=N)N5CCCC5)c4)cc3C2)c1` (stereo not drawn) [Compound I-194, N-(3-tert-butylphenyl)-7-({2-[imino(pyrrolidin-1-yl)methyl]pyridin-4-yl}oxy)-1,2,3,4-tetraydronaphthalene-2-carboxamide], the IC50 was at most 25 µM. The same measure for `CC(=O)NCc1cc(Oc2ccc3c(c2)CC(C(=O)Nc2cc(CN)cc(C(F)(F)F)c2)CC3)ccn1` (stereo not drawn) [Compound I-203, 7-({2-[(acetylamino)methyl]pyridin-4-yl}oxy)-N-[3-(aminomethyl)-5-(trifluoromethyl)phenyl]-1,2,3,4-tetrahydronaphthalene-2-carboxamide]: at most 25 µM; for `NCc1cc(NC(=O)C2CCc3ccc(Oc4ccnc(-n5ccnc5)c4)cc3C2)cc(C(F)(F)F)c1` (stereo not drawn) [Compound I-205, N-[3-(aminomethyl)-5-(trifluoromethyl)phenyl]-7-{[2-(1H-imidazol-1-yl)pyridin-4-yl]oxy}-1,2,3,4-tetrahydronaphthalene-2-carboxamide]: at most 25 µM; for `NCc1cc(NC(=O)C2CCc3ccc(Oc4ccnc(-c5cnco5)c4)cc3C2)cc(C(F)(F)F)c1` (stereo not drawn) [Compound I-210, N-[3-(aminomethyl)-5-(trifluoromethyl)phenyl]-7-{[2-(1,3-oxazol-5-yl)pyridin-4-yl]oxy}-1,2,3,4-tetrahydronaphthalene-2-carboxamide]: at most 25 µM.
